This note sets out measurements from patent publication US6492416B1, “4,5-diaryl-3(2H)-furanone derivatives as cyclooxygenase-2 inhibitors” (Pacific Corporation, priority 1999, dated 2002).

As usually defined, the melting point is the temperature, or range, at which the solid turns liquid. `C[S+]([O-])c1ccc(C2=C(c3ccccc3)C(=O)C(C)(C)O2)cc1Cl` (stereo not drawn) [Example 363, 5-{3-Chloro-4-(methylsulfinyl)phenyl}-2,2-dimethyl-4-phenyl-3(2H)-furanone] had a melting point of 120 to 121 °C.

In turn, `CC1(C)OC(c2ccc(S(C)(=O)=O)cc2)=C(c2ccc3c(c2)OCO3)C1=O` [Example 8, 2,2-Dimethyl-4-(3,4-methylenedioxyphenyl)-5-{4-(methylsulfonyl)phenyl}-3(2H)-furanone] came in with a melting point of 178 to 179 °C.

For `CC1(C)OC(c2ccc(S(C)(=O)=O)cc2)=C(c2cccnc2)C1=O` [Example 19, 2,2-Dimethyl-5-{4-(methylsulfonyl)phenyl}-4-(3-pyridyl)-3(2H)-furanone], the melting point was in the range of 164 to 166 °C.

Regarding `CC1(C)OC(c2ccc(S(N)(=O)=O)cc2)=C(c2cc3ccccc3s2)C1=O` [Example 28], the melting point is 120 to 121 °C.

`CC1(C)OC(c2ccc(S(C)(=O)=O)cc2)=C(c2ccc(S(C)(=O)=O)cc2)C1=O` [Example 109, 2,2-Dimethyl-4,5-di{4-(methylsulfonyl)phenyl}-3(2H)-furanone] gave a melting point of 245 to 257 °C.

Compound `CC1(C)OC(c2ccc(S(C)(=O)=O)cc2)=C(c2ccc(OC(F)(F)F)cc2)C1=O` [Example 7, 2,2-Dimethyl-5-{4-(methylsulfonyl)phenyl}-4-{4-(trifluoromethoxy)phenyl}-3(2H)-furanone] came in with a melting point of 118 to 120 °C.

In turn, `CC1(C)OC(c2ccc(S(C)(=O)=O)cc2)=C(c2cc3ccccc3s2)C1=O` [Example 15, 4-(2-Benzo[b]thienyl)-2,2-dimethyl-5-{4-(methylsulfonyl)phenyl}-3(2H)-furanone] returned a melting point of 204 to 206 °C.

The compound `CSc1ccc(C2=C(c3cccc(F)c3)C(=O)C(C)(C)O2)cc1` [Example 166, 2,2-Dimethyl-4-(3-fluorophenyl)-5-{4-(methylthio)phenyl}-3(2H)-furanone] yielded a melting point of 106 °C.

Consider `CC1(C)OC(c2ccc(S(N)(=O)=O)cc2)=C(c2ccc3c(c2)OCO3)C1=O` [Example 27, 5-{4-(Aminosulfonyl)phenyl{-2,2-dimethyl-4-}3,4-(methylenedioxy)phenyl}-3(2H)-furanone], for which the melting point was in the range of 178 to 179 °C.

In the case of `CNS(=O)(=O)c1ccc(C2=C(c3cccc(F)c3)C(=O)C(C)(C)O2)cc1` [Example 184, 2,2-Dimethyl-5-{4-(N-methylaminosulfonyl)phenyl}-4-(3-fluorophenyl)-3(2H)-furanone], the melting point fell in the range of 176 to 177 °C.

Turning to `CCC1(C)OC(c2ccc(S(N)(=O)=O)cc2)=C(c2ccc(OC)c(F)c2)C1=O` (stereo not drawn) [Example 46, 5-{4-(Aminosulfonyl)phenyl}-2-ethyl-4-(3-fluoro-4-methoxyphenyl)-2-methyl-3(2H)-furanone], the melting point was in the range of 113 to 114 °C.

In turn, `Cc1cccc(C2=C(c3ccc(S(C)(=O)=O)cc3)OC3(CCCCC3)C2=O)c1` [Example 260, 3-(3-Methylphenyl)-2-{4-(methylsulfonyl)phenyl}-1-oxa-spiro[4,5]dec-2-en-4-one] had a melting point of 154 to 155 °C.

In turn, `CC1(C)OC(c2ccc(S(N)(=O)=O)cc2)=C(c2cccc(-c3ccccc3)c2)C1=O` [Example 29, 5-{4-(Aminosulfonyl)phenyl}-4-(3-biphenyl)-2,2-dimethyl-3(2H)-furanone] returned a melting point of 160 to 161 °C.

Compound `CSc1ccc(C2=C(c3ccc(S(C)(=O)=O)cc3)OC(C)(C)C2=O)cc1` [Example 72, 2,2-dimethyl-5-{4-(methylsulfonyl)phenyl}-4-{4-(methylthio)-phenyl}-3(2H)-furanone] yielded a melting point of 137 to 141 °C.

The compound `Cc1ccc(C2=C(c3ccc(S(C)(=O)=O)cc3)OC(C)(C)C2=O)cc1` [Example 1, 2,2-Dimethyl-4-(4methylphenyl)-5-{4-(methylsulfonyl)phenyl}-3(2H)-furanone] showed a melting point of 167 to 168 °C.

For `CC1(C)OC(c2ccc(S(C)(=O)=O)c(F)c2)=C(c2ccc([N+](=O)[O-])cc2)C1=O` [Example 287, 2,2-dimethyl-4-(4-nitrophenyl)-5-{3-fluoro-4-(methylsulfonyl)-phenyl}-3(2H)-furanone], the melting point lay within 173 to 174 °C.

Take `CC1(C)OC(c2ccc(S(N)(=O)=O)cc2)=C(c2cc3ccccc3o2)C1=O` [Example 30]: the melting point lay within 143 to 145 °C.

In the case of `CCS(=O)(=O)c1ccc(C2=C(c3ccc(S(C)(=O)=O)cc3)OC(C)(C)C2=O)cc1` [Example 110, 2,2-Dimethyl-4-{4-(ethylsulfonyl)phenyl}-5-{4-(methylsulfonyl)phenyl}-3(2H)-furanone], the melting point lay in the range of 198 to 203 °C.

Turning to `C[S+]([O-])c1ccc(C2=C(c3ccccc3)C(=O)C(C)(C)O2)c(Cl)c1` (stereo not drawn) [Example 391, 5-{2-Chloro-4-(methylsulfinyl)phenyl}-2,2-dimethyl-4-phenyl-3(2H)-furanone], the melting point lay in the range of 135 to 136 °C.

`Cc1cc(C2=C(c3cccc(F)c3)C(=O)C(C)(C)O2)ccc1S(N)(=O)=O` [Example 380, 5-{4-(Aminosulfonyl)-3-methylphenyl}-2,2-dimethyl-4-(3-fluorophenyl)-3(2H)-furanone] returned a melting point of 81 to 82 °C.

The compound `C[S+]([O-])c1ccc(C2=C(c3ccccc3)C(=O)C(C)(C)O2)c(F)c1` (stereo not drawn) [Example 327, 2,2-Dimethyl-5-{2-fluoro-4-(methylsulfinyl)phenyl}-4-phenyl-3(2H)-furanone] gave a melting point of 149 to 150 °C.

`CC1(C)OC(c2ccc(S(C)(=O)=O)cc2)=C(c2ccc(F)c(Cl)c2)C1=O` [Example 2, 4-(3-Chloro-4-fluorophenyl)-2,2-dimethyl-5-{4-(methylsulfonyl)phenyl}-3(2H)-furanone] returned a melting point of 162 to 164 °C.

The compound `CC1(C)OC(c2ccc(S(C)(=O)=O)cc2)=C(c2cc3ccccc3o2)C1=O` [Example 16, 4-(2-Benzo[b]furanyl)-2,2-dimethyl-5-{4-(methylsulfonyl)phenyl}-3(2H)-furanone] returned a melting point of 140 to 141 °C.

Turning to `CCC1(CC)OC(c2ccc(S(C)(=O)=O)cc2)=C(c2ccccc2)C1=O` [Example 47, 2,2-Diethyl-5-{4-(methylsulfonyl)phenyl}-4-phenyl-3(2H)-furanone], the melting point lay within 139 to 140 °C.

For the compound `CC1(C)OC(c2ccc(S(C)(=O)=O)cc2)=C(c2cccc3ccccc23)C1=O` [Example 13, 2,2-Dimethyl-5-{4-(methylsulfonyl)phenyl}-4-(1-naphthyl)-3(2H)-furanone], the melting point was in the range of 194 to 195 °C.

The compound `CCCC(=O)NS(=O)(=O)c1ccc(C2=C(c3cccc(F)c3)C(=O)C(C)(C)O2)cc1` [Example 183, 5-[4-{(n-Butyrylamino)sulfonyl}phenyl]-2,2-dimethyl-4-(3-fluorophenyl)-3(2H)-furanone] had a melting point of 188 to 189 °C.

For `COc1c(C)cc(C2=C(c3ccc(S(C)(=O)=O)cc3)OC(C)(C)C2=O)cc1C` [Example 12, 2,2-Dimethyl-4-(3,5-dimethyl-4-methoxyphenyl)-5-{4-(methylsulfonyl)phenyl}-3(2H)-furanone], the melting point is 130 to 131 °C.

For `CCSc1ccc(C2=C(c3ccc(S(C)(=O)=O)cc3)OC(C)(C)C2=O)cc1` [Example 88, 2,2-dimethyl-4-{4-(ethylthio)phenyl}-5-{4-(methylsulfonyl)-phenyl}-3(2H)-furanone], the melting point was 103 to 105 °C.

Take `CSc1ccc(C2=C(c3cc(F)cc(F)c3)C(=O)C(C)(C)O2)cc1` [Example 173, 4-(3,5-difluorophenyl)-2,2-dimethyl-5-{4-(methylthio)-phenyl}-3(2H)-furanone]: the melting point was 122 to 123 °C.

As to `CC(=O)c1ccc(C2=C(c3ccc(S(C)(=O)=O)cc3)OC3(CCCC3)C2=O)cc1` [Example 55, 3-(4-Acetylphenyl)-2-{4-(methylsulfonyl)phenyl}-1-oxa-spiro[4,4]non-2-en-4-one], the melting point fell in the range of 126 to 130 °C.
